Data from publication PMC12028472, “Marine-Derived Yaequinolone Derivative CHNQD-02792 Suppresses Colorectal Cancer Cell Proliferation and Induces Apoptosis via MAPK Pathway Modulation” (Marine Drugs, 2025).

Legend:
HT-29 = test: MTT assay, HT-29 cells; assay type: cell-based; details: Homo sapiens, 72 h
Procedure: (§1) Human colorectal adenocarcinoma cells HT-29, HCT-116, DLD-1, LS-174T, RKO, and LoVo, as well as mouse colorectal carcinoma cell CT-26, were purchased from the Chinese Academy of Sciences Shanghai Cell Bank.
(§2) Cells stored at −80 °C were rapidly thawed in a 37 °C water bath, centrifuged to collect, and resuspended in a complete medium for culturing in a 37 °C, 5% CO2 incubator. Then, they were rinsed twice with PBS, digested with trypsin, and resuspended in a complete medium after detachment. HT-29, HCT-116, DLD-1, and CT-26 cells were cultured in RPMI-1640 medium supplemented with 10% FBS and 1% penicillin-streptomycin. LS-174T cells were cultured in DMEM-H medium, LoVo in Ham’s F-12K medium, and RKO in MEM.
(§3) Cells in the logarithmic growth phase were seeded in 96-well plates at 4000 cells per well, adjusted based on growth rates, and incubated overnight at 37 °C with 5% CO2. Experimental wells were treated with yaequinolone derivatives at concentrations of 0.4, 2, 10, 20, and 50 μM, while control wells received equivalent dilutions of DMSO to minimize effects. Each group was prepared in five replicates and incubated for 72 h. After removing the drug-containing medium, 100 μL of MTT solution (5 mg/mL) was added to each well and incubated at 37 °C for 4 h. The solution was then aspirated, replaced with 200 μL of DMSO, incubated for 10 min at 37 °C, and shaken before measuring absorbance (OD) at 570 nm using a microplate reader. The tumor cell survival rate was calculated as follows: survival rate (%) = [(OD experimental group − OD blank group)/(OD control group − OD blank group)] × 100%. All experiments were conducted in triplicate.

LoVo = test: MTT assay, LoVo cells; assay type: cell-based; details: Homo sapiens, 72 h
Procedure: as §1, §2, §3

CT-26 = test: MTT assay, CT-26 cells; assay type: cell-based; details: Mus musculus, CT26, 72 h
Procedure: as §1, §2, §3

LS-174T = test: MTT assay, LS-174T cells; assay type: cell-based; details: Homo sapiens, LS174T, 72 h
Procedure: as §1, §2, §3

RKO = test: MTT assay, RKO cells; assay type: cell-based; details: Homo sapiens, 72 h
Procedure: as §1, §2, §3

DLD-1 = test: MTT assay, DLD-1 cells; assay type: cell-based; details: Homo sapiens, 72 h
Procedure: as §1, §2, §3

HCT-116 = test: MTT assay, HCT-116 cells; assay type: cell-based; details: Homo sapiens, 72 h
Procedure: as §1, §2, §3

Bax = test: Western blot, Bax expression in HT-29 cells; assay type: cell-based, human; details: HT-29, increasing concentrations (2.3, 4.5, 9 μM)
Procedure: (§4) Cells in the logarithmic growth phase were seeded at 600,000 cells per well in 6-well plates and incubated overnight at 37 °C with 5% CO2. CHNQD-02792 (2.3, 4.5, and 9 μM) was added to the experimental group, while an equivalent dilution of DMSO was added to the control group. After 24 h of treatment, the cells were collected from the incubator. The cells were washed twice with pre-cooled PBS, and the proteins were extracted using ice-cold RIPA lysis buffer (RIPA-PMSF, 99:1, v/v). Adherent cells were scraped off the Petri dish with a pre-cooled plastic scraper. Protein concentrations were measured using a BCA kit. Protein samples were mixed with 5× loading buffer, boiled in a metal bath for 6 min, and stored at −20 °C. Proteins of different molecular weights were separated by gel electrophoresis and transferred onto PVDF membranes using wet transfer. The membrane was blocked with 5% skimmed milk powder for 2 h, followed by incubation with the primary antibody overnight at 4 °C. After three washes with TBST (10 min each), the membrane was incubated with the secondary antibody at room temperature for 1 h. It was then washed three times with TBST (10 min each) and analyzed using a gel imaging system with a high-sensitivity ECL luminescent solution.

ERK = test: Western blot, ERK phosphorylation in HT-29 cells; assay type: cell-based, human; details: HT-29, Western blot
Procedure: as §4

JNK = test: Western blot, JNK phosphorylation in HT-29 cells; assay type: cell-based, human; details: HT-29, Western blot
Procedure: as §4

[1] = tested on: LPS-induced RAW264.7 cells; design: method as in PMID 36758306; details: 50 nM; cited from earlier work
Caspase-3 = test: Western blot, Caspase-3 expression in HT-29 cells; assay type: cell-based, human; details: HT-29, increasing concentrations (2.3, 4.5, 9 μM)
Procedure: as §4

Bcl-2 = test: Western blot, Bcl-2 expression in HT-29 cells; assay type: cell-based, human; details: HT-29, increasing concentrations (2.3, 4.5, 9 μM)
Procedure: as §4

HT-29 cells [2] = test: Plate colony formation assay; assay type: cell-based, human; details: 9 μM, 14 days
Procedure: Cells in the logarithmic growth phase were seeded at 1000 per well in 6-well plates and incubated overnight at 37 °C with 5% CO2. CHNQD-02792 (2.3, 4.5, and 9 μM) was added to the experimental group, while the control group received an equal dilution of DMSO. The medium color was monitored regularly, and the medium was replaced simultaneously in both groups. After 14 days, clonal clusters (approximately 50 cells) were formed. The cells were washed with PBS, fixed with 4% paraformaldehyde for 1 h, stained with crystal violet for 30 min, washed again with PBS, dried, photographed, and analyzed using Image J software (v 1.8.0.) to count colonies. The cell proliferation rate was calculated by comparing the experimental group with the control group treated with DMSO.

CDK1 = test: Western blot, CDK1 expression in HT-29 cells; assay type: cell-based, human; details: HT-29, increasing concentrations (2.3, 4.5, 9 μM)
Procedure: as §4

HT-29 cells [3] = test: Apoptosis assay (Annexin V-FITC/PI flow cytometry); assay type: cell-based, human
Procedure: Cells in the logarithmic growth phase were seeded at 600,000 cells per well in 6-well plates and incubated overnight at 37 °C in a 5% CO2 incubator. CHNQD-02792 (2.3, 4.5, 9 μM) was added to the experimental group, while the control group received an equal dilution of DMSO. After 48 h, cells were collected, centrifuged at 300× g for 5 min, and washed once with PBS. The cells were gently resuspended and counted. Take 1–5 × 10^5 resuspended cells, centrifuge at 300× g for 5 min, and discard the supernatant. The cells were washed once with PBS, centrifuged again, and the supernatant was discarded. Then, 500 μL of 1× diluted Annexin V Binding Buffer was added to resuspend the cells. Add 5 μL of Annexin V-FITC and 5 μL of PI (50 μg/mL) to the cell suspension. After gently vortexing, incubate the samples at room temperature in the dark for 15–20 min. Immediately analyze the samples using a flow cytometer. The results were analyzed using Novoexpress software (v.1.6.2).

RAW264.7 cells = test: Inhibition of RAW264.7 cells (normal cells vs cancer cells); assay type: cell-based; details: Mus musculus
From the text: Therefore, to verify the difference between CHNQD-02792 on normal cells and cancer cells, we examined the inhibition of CHNQD-02792 on RAW264.7 cells. […] The inhibition of HT-29 cell colony formation increased with higher concentrations of CHNQD-02792.

HT-29 cells [4] = test: Cell cycle assay (PI, flow cytometry); assay type: cell-based, human; details: highest concentration, 48 h, control 16.42%
Procedure: Cells in the logarithmic growth phase were seeded at 350,000 cells per well in 6-well plates and incubated overnight at 37 °C with 5% CO2. CHNQD-02792 (2.3, 4.5, 9 μM) was added to the experimental group, while an equal dilution of DMSO was added to the control group. After 48 h, cells were collected, centrifuged at 300× g for 5 min at 4 °C, and resuspended in 1 mL of ice-cold PBS. This step was repeated, and the supernatant was discarded. The cells were then resuspended in 300 μL of PBS, and 700 μL of pre-cooled anhydrous ethanol was added dropwise for fixation at 4 °C overnight. Within 12–24 h, cells were centrifuged at 1000× g for 5 min, and the supernatant was discarded. The cells were washed with 1 mL of pre-cooled PBS, centrifuged again, and resuspended in 500 μL of PBS. RNase A and PI were then added to each tube, […]. The cells were incubated at 4 °C with RNase A and PI in the dark for 30 min. Data were collected using a flow cytometer (488 nm laser excitation, 620/29 nm filter), and results were analyzed using FlowJo software (v.10.8.1).

Cyclin B1 = test: Western blot, Cyclin B1 expression in HT-29 cells; assay type: cell-based, human; details: HT-29, increasing concentrations (2.3, 4.5, 9 μM)
Procedure: as §4

[5] = tested on: LPS-induced RAW264.7 cells; design: method as in PMID 36758306; details: 10 nM; cited from earlier work

SMILES	IC50 (HT-29) [µM]	IC50 (LoVo) [µM]	IC50 (CT-26) [µM]	IC50 (LS-174T) [µM]	IC50 (RKO) [µM]	IC50 (DLD-1) [µM]	IC50 (HCT-116) [µM]	further results
O=c1[nH]cc(F)c(=O)[nH]1 [5-fluorouracil, reference compound]	15.6	–	–	–	–	–	–	–
COc1ccc([C@]2(O)c3c(ccc4c3O[C@](C)(CCC=C(C)C)C=C4)N(Cc3cccc(Br)c3)C(=O)[C@H]2OC)cc1 [Compound 4]	> 50	> 50	> 50	> 50	48.3	> 50	> 50	–
COc1ccc([C@]2(O)c3c(ccc4c3O[C@@](C)(CCC=C(C)C)C=C4)N(Cc3cccc(Br)c3)C(=O)[C@H]2OC)cc1 [Compound 7]	> 50	25	> 50	> 50	22	> 50	> 50	–
CO[C@@H]1C(=O)Nc2ccc3c(c2[C@@]1(O)c1cccc(Br)c1)O[C@@](C)(CCC=C(C)C)C=C3 [Compound 12]	42.8	> 50	26.3	7.7	37.3	11.6	25.8	–
CO[C@@H]1C(=O)Nc2ccc3c(c2[C@@]1(O)c1cccc(Br)c1)O[C@](C)(CCC=C(C)C)C=C3 [Compound 13]	4.5	28.3	> 50	24.3	28	> 50	50	Bax protein expression (Bax): increased; phosphorylation of ERK (ERK): inhibited; phosphorylation of JNK (JNK): increased; IL-6 level [1]: significantly inhibiting; Caspase-3 protein expression (Caspase-3): significantly increased; Bcl-2 protein expression (Bcl-2): markedly decreased; growth of HT-29 cells, plate cloning assay (HT-29 cells [2]): completely inhibited; CDK1 protein expression level (CDK1): decreased; Q4 (early apoptotic cells) (HT-29 cells [3]; 9.0 μM, 48 h, HT-29, Annexin V-FITC/PI, control 5.31%): 20.23%; proportion of apoptotic cells (HT-29 cells [3]; 48 h of treatment, HT-29, control 6.81%): 26.10%; IC50 (RAW264.7 cells): 27.2 µM; proportion of cells in the G2/M phase (HT-29 cells [4]): 31.78%; Cyclin B1 protein expression level (Cyclin B1): decreased; NO release [5]: significantly inhibiting
